{"source": "patent US20090056397A1", "about": "“NITROGEN CONTAINING FERTILIZER FOR PLANT GROWTH” (SweTree Technologies AB, priority 2000, published 2009)", "key": {"pine plants": {"system": "pine plants", "experiment": "Cultivation trials with pine plants in peat using various nitrogen sources", "assay_type": "in vivo", "details": "59 days; for change in growth of the pine plants on charge increase from three to ten millimoles per litre: nitrogen 3 mM to 10 mM; for growth of the pine plants (mean dry weight), ranking of the nitrogen sources: greenhouse 20° C., nitrogen 1, 3 and 10 mM, FIG. 1", "experimental": "The cultivation trials presented below were carried out over a time period of 59 days in a greenhouse that was kept at a constant temperature of 20° C. Lighting was kept at 150 micromole light per square meter (m^2) and second (s). The lamps used to this end were Philips Powertone SON-T+400 Watt. 720 pine seeds were sown in pots that contained 0.5 litre unfertilized (but weakly […] five seeds per pot. The pots were plastic pots that included typically four small holes in the bottom of the pot. […] Fertilizer was administered on Monday and Tuesday of each week and the seeds, and later the seedlings or shoots, were watered each Sunday. The nutrient mixture and the water were both brought a pH of 5.0 with hydrochloric acid. Both the nutrient mixture and the water were administered manually to each pot with the aid of so-called bird pipette having a capacity of one decilitre. […] Eight different nutrient mixtures were tested and the nitrogen for each nutrient mixture was charged in three different concentrations, namely concentrations of one millimole per litre (1 mM), three millimole per litre (3 mM) and ten millimole per litre (10 mM). Six pots, and therewith thirty plants, were used for each nutrient mixture and each concentration, giving a total of 144 pots. […] Further dilution was required to obtain respective concentrations of three millimole and one millimole. The remaining seven nutrient mixtures were obtained, by preparing a stock solution that coincides totally with the before described commercial product but with the exception that the nitrogen source in the form of 61.5% nitrogen in nitrate form and 38.5% nitrogen in ammonium form was excluded. […] Each nutrient mixture based on the latter two nitrogen sources were prepared and have been given the designation +(plus) in the following. The addition is that the stock solution has been charged with twice the conventional amount of both potassium and magnesium. As those skilled in this art will realise, this has been done because a significant increase in the amount of ammonium nitrogen at the cost of the amount of nitrate nitrogen may result in a potassium and magnesium deficiency from the nutrient aspect. It will be noted that with regard to the inventive fertilizer, i.e. the basic protein amino acid arginine that contains four nitrogen atoms, the concentration has been calculated on the basis of one nitrogen atom, which means that the actual addition of the acid calculated in grams per litre is comparatively low or very low. At the end of the cultivation trials, the thirty pine plans in each trial series were taken up and their dry weight determined in grams. […] The sign I stand for the standard error defined as the standard deviation (which is a well defined term to describe the spread between tests) divided by the square root of the number of samples, in this case thirty samples."}, "[1]": {"details": "for Retention % (adsorption or retention of the chemicals in the peat): 0.2 millimole chemical per gram peat, 5 millimolar solution, one hour at room temperature, mean of three tests, HPLC of liquid phase; for amount of supplied chemical found in the liquid (water) phase: same test as the retention, liquid phase above the peat", "method": "A given amount of peat of the same kind as that used in the cultivation trials and whose properties have been given above was dried in an oven at a temperature of 60° C. for 20 hours. […] Portions of this peat corresponding to 0.25 grams were inserted into nine test tubes. 5 ml water was delivered to each test tube, this water having been purified in filters from the company Millipore. The test tubes and their contents were then allowed to stand at room temperature for 20 hours, so that the peat would become wet through.\nThe aforesaid three chemicals, each in solid state, were weighed into three equal portions. Each portion was dissolved in 5 ml water that had been purified in the before described manner. The amount or weight of the substance was such as to obtain a substance concentration of 5 millimolar.\nEach of the nine chemical solutions was delivered to a respective test tube that contained water-drenched peat. The amount of chemical added was 0.2 millimole per gram peat in all cases. Subsequent to supplying said liquid, each test tube was shaken by hand and thereafter allowed to stand at room temperature for one hour. The materials in the test tubes layered, such that the lowermost third contained a substantially clear liquid phase and the remainder of the tube contained liquid-drenched peat. A pipette was inserted into the test tube down to approximately midway of the liquid phase. About 1.5 millilitres of liquid was drawn off through the pipette and analysed with respect to its chemical content with the aid of HPLC-chromatography (HPLC=High Performance Liquid Chromatography).\nAs evident from the foregoing, three similar tests were carried out for each chemical."}, "spruce plants": {"system": "spruce plants", "experiment": "Cultivation trials with spruce plants in peat using various nitrogen sources", "assay_type": "in vivo", "details": "59 days", "text": "720 spruce seeds were sown in peat at the same time as and in parallel with the above described trials. The trials carried out on spruce seeds and on spruce plants stemming from the seed were identical to the earlier described trials. […] The standard deviation is also shown in this case."}}, "note": "Read-outs that look alike come from different tables or passages of the source."}
{"smiles": "Cl.N", "note": "[Ammonium (NH4^+), ammonium chloride]", "values": [{"measurement": "change in growth of the pine plants on charge increase from three to ten millimoles per litre", "setting": "pine plants", "result": "catastrophic reduction in growth"}, {"measurement": "growth of the pine plants at a charge of three millimoles per litre", "setting": "pine plants; nitrogen 3 mM", "result": "sufficiently good growth"}, {"measurement": "Retention % (adsorption or retention of the chemicals in the peat)", "setting": "[1]", "result": 28.0, "unit": "%"}, {"measurement": "Retention % (adsorption or retention of the chemicals in the peat)", "setting": "[1]; listed as ammonium", "result": 28, "unit": "%"}, {"measurement": "amount of supplied chemical found in the liquid (water) phase", "setting": "[1]", "result": "more than 70%"}, {"measurement": "state of the spruce plants at the end of the trial (toxicity limit)", "setting": "spruce plants; nitrogen charge of ten millimoles per litre", "result": "dead at the end of the trial"}]}
{"smiles": "N=C(N)NCCC[C@H](N)C(=O)O", "note": "[Arginine, arginine]", "values": [{"measurement": "growth of the pine plants (mean dry weight), ranking of the nitrogen sources", "setting": "pine plants", "result": "best growth"}, {"measurement": "growth of the pine plants with increase in the nitrogen addition", "setting": "pine plants; nitrogen 1 to 3 to 10 mM", "result": "increased constantly with an increase in the nitrogen addition"}, {"measurement": "Retention % (adsorption or retention of the chemicals in the peat)", "setting": "[1]", "result": 89.1, "unit": "%"}, {"measurement": "Retention % (adsorption or retention of the chemicals in the peat)", "setting": "[1]; listed as arginine", "result": "~90", "unit": "%"}, {"measurement": "amount of supplied chemical found in the liquid (water) phase", "setting": "[1]", "result": "~11", "unit": "%"}, {"measurement": "growth of the spruce plants with increased nitrogen charges", "setting": "spruce plants; nitrogen 1 to 3 to 10 mM", "result": "constantly increased growth"}]}
{"smiles": "NCC(=O)O", "note": "[Glycine, glycine]", "values": [{"measurement": "growth of the pine plants (mean dry weight), ranking of the nitrogen sources", "setting": "pine plants", "result": "these three preparations are followed by the nutrient mixture that includes glycine"}, {"measurement": "change in growth of the pine plants on charge increase from three to ten millimoles per litre", "setting": "pine plants", "result": "slight decrease in growth or at least not an increased growth"}, {"measurement": "Retention % (adsorption or retention of the chemicals in the peat)", "setting": "[1]", "result": "−1.9", "unit": "%"}, {"measurement": "Retention % (adsorption or retention of the chemicals in the peat)", "setting": "[1]; listed as glycine", "result": "less than zero"}]}
